Results on three compounds are retold here after patent publication US20140348857A1, “METHODS OF DIAGNOSIS AND TREATMENT OF ENDOPLASMIC RETICULUM (ER) STRESS-RELATED CONDITIONS” (MASSACHUSETTS INSTITUTE OF TECHNOLOGY, priority 2011, published 2014).

One assay deals with PERK. Briefly: PERK and eIF2α phosphorylation immunoblot in HeLa cells. The format is cell-based, human. Conditions: control HeLa cells; Brefeldin A 5 μg/ml, Tunicamycin 3 μg/ml. An excerpt: To determine the effects of (ADP-ribosyl)ation on PERK and IRE1α signaling, GFP-PARP-16, GFP-PARP-16^H152Q Y182A, or GFP alone were over-expressed at similar concentrations, and PERK and IRE1α activation examined using two standard assays; (i) detection of PERK phosphorylation at Thr 981 and phosphorylation of its substrate eIF2α at Ser 51 using phospho-specific antibodies, and (ii) monitoring splicing of the IRE1α substrate XBP-1 mRNA.
To determine if PARP-16 is required for PERK or IRE1α activation, we compared activation in PARP-16 knock-downs to controls. […] Since PERK and IRE1α activity result in the time-dependent activation of downstream transcriptional programs regulated by ATF4 and spliced XBP-1, respectively, we analyzed PERK and IRE1α signaling every 4 hours over a 12-hour period in PARP-16 knock-downs and controls treated with Tunicamycin. Components of each pathway were analyzed via immunoblot or RT-qPCR analysis. While IRE1α activation, detected by phosphorylation of IRE1α, occurred 4 hours post-treatment in controls, such phosphorylation was barely detectable in PARP-16 knock-downs at any time (FIG. 7C, left). […]
Immunofluorescence analysis was performed as described in Leung et al., Mol. Cell 42: 489-499, 2011. […] Fluorescence, biochemical protease protection assays and membrane extraction assays were performed as described in Schreiber et al., Nat. […]

The subject of the next assay is ERAD machinery. Nature of the assay: ERAD activity assay, CD3δ-YFP clearance by cycloheximide chase. The class given is cell-based, human. Conditions: MG132 10 μM. An excerpt:
While our data strongly point to direct effects of PARP-16 on PERK and IRE1α signaling, compromised ERAD (ER-associated degradation) and/or chaperone capacities of the ER in PARP-16 knock-downs could also affect UPR activation. ERAD activity in PARP-16 knock-downs was examined by measuring clearance of CD3δ-YFP, a model substrate of ERAD machinery. CD3δ-YFP degradation kinetics were similar in PARP-16 knock-downs and controls as assayed by cycloheximide chase. […] The protein-folding capacity of the ER in PARP-16 knock-downs appear to be similar to controls as the protein concentrations of ER chaperones BiP and Calnexin, and disulfide isomerases PDI and ERp57, were similar (FIG. 9C).
ROS was evaluated using a cell permeant […] derivative of fluorescein (CM-H2DCFDA, Invitrogen), following the manufacturer's protocol (Invitrogen). […] The fluorescence intensity of oxidized ROS probe was measured using a microplate reader (Tecan). […] The ratiometric fluorescence at 340 nm/380 nm was measured every 2 min for 20 min, using a microplate reader (Tecan). […] Total RNA was extracted using RNeasy kits and QIAshredder (Qiagen), and cDNA was amplified using Quantitect reverse transcription kit (Qiagen). RT-qPCR was performed with Quantitect SYBR Green PCR kit (Qiagen), using a LightCycler 480 (Roche). mRNA levels were normalized against GAPDH mRNA.

Where a SMILES comes first, the peptide text is derived from it. The star is where a group is joined. Cbz = O=C(OCc1ccccc1)*

Consider `C[C@H]1CCC/C=C/[C@@H]2C[C@H](O)C[C@H]2[C@H](O)/C=C/C(=O)O1` [Brefeldin A], for which the “phosphorylation of PERK and eIF2α” value in the assay on PERK was “robust phosphorylation of PERK and eIF2α”.

With `CC(C)C[C@@H](C=O)NC(=O)[C@H](CC(C)C)NC(=O)[C@H](CC(C)C)NC(=O)OCc1ccccc1` [MG132] (Cbz-Leu-Leu-Leu-aldehyde), the CD3δ-YFP degradation entry with ERAD machinery is “rescued degradation”.

With Tunicamycin, in the assay on PERK, the “phosphorylation of PERK and eIF2α” value was “robust phosphorylation of PERK and eIF2α”.
